This passage reports inhibition results from patent US9024021B2, “Diarylacetylene hydrazide containing tyrosine kinase inhibitors” (Sun Pharma Advanced Research Company Ltd., priority 2011, dated 2015).

The target in one assay is T1, Abl (M351T) (human) (Homo sapiens, UniProt P00519, M351T).
T1 construct: purchased Millipore Pharma Services (contract assay, UK pharmacology laboratory)
Description: Mutated Abl kinase inhibition (in vitro), M351T. To be noted: 100 nM. It is filed as biochemical. Here is the method:
(§1) The kinase assays were performed by Millipore Pharma Services at their UK pharmacology laboratory.
(§2) In a final reaction volume of 25 μL, Abl (human) (5-10 mU) is incubated with 8 mM MOPS pH7.0, 0.2 mM EDTA, 50 μM […], 10 mM Mg(OAc)2 and [γ-^33P-ATP] [specific activity approx. 500 cpm/pmol, concentration as required). The reaction is initiated by the addition of the MgATP mix. After incubation for 40 minutes at room temperature, the reaction is stopped by the addition of 5 μL of a 3% phosphoric acid solution. 10 μL of the reaction is then spotted onto a P30 filtermat and washed three times for 5 minutes in 75 mM phosphoric acid and once in methanol prior to drying and scintillation counting.
(§3) The procedure remains exactly the same as described earlier for Abl kinase, the Abl (human) kinase being replaced by mutated Abl (Q252H) (human), Abl (Y253F) (human), Abl (T315I) (human), Abl (M351T) (human) and Abl (H396P) (human) kinases.
(§4) Within each kinase assay, percent of control values were calculated for each test compound raw data point based on mean minimum (0%) and maximum (100%) controls (n=4 per control) for that kinase (sample−mean minimum/mean maximum−mean minimum×100%). Percent inhibition was calculated from these values (100−mean percent of control).

The target of a further assay is T2, Lyn (human) (Homo sapiens, UniProt P07948).
T2 construct: purchased Millipore Pharma Services (contract assay, UK pharmacology laboratory)
T2 sequence (P07948 whole entry): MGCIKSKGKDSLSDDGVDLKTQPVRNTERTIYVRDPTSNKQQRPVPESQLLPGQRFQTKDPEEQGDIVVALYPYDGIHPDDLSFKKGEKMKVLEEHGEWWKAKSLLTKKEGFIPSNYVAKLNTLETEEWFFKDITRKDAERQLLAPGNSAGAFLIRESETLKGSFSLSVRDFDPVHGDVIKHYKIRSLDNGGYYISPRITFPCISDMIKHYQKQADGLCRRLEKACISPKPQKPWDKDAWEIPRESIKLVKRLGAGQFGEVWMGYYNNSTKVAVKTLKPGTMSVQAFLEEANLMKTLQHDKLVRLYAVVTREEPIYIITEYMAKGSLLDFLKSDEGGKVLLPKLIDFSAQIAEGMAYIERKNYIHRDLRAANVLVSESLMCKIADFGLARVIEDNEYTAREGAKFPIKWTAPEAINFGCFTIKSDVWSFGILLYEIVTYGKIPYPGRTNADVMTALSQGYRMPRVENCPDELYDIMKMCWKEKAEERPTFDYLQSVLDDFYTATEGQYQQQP
Kind of assay: Lyn kinase inhibition (in vitro). It is filed as biochemical. The note with it: read-out: % Inhibition at 100 nM Lyn. Here is the method:
as §1
In a final reaction volume of 25 μL, Lyn (human) (5-10 mU) is incubated with 50 mM Tris pH 7.5, 0.1 mM EGTA, 0.1 mM Na3VO4, 0.1% β-mercaptoethanol, 0.1 mg/ml poly(Glu, tyr) 4:1, 10 mM Mg(OAc)2 and [γ-^33P-ATP] [specific activity approx. 500 cpm/pmol, concentration as required). The reaction is initiated by the addition of the MgATP mix. After incubation for 40 minutes at room temperature, the reaction is stopped by the addition of 5 μL of a 3% phosphoric acid solution. 10 μL of the reaction is then spotted onto a filtermat A and washed three times for 5 minutes in 75 mM phosphoric acid and once in methanol prior to drying and scintillation counting.
as §4

The target in a further assay is T3, Abl (Y253F) (human) (Homo sapiens, UniProt P00519, Y253F).
T3 construct: purchased Millipore Pharma Services (contract assay, UK pharmacology laboratory)
Kind of assay: Mutated Abl kinase inhibition (in vitro), Y253F. It is filed as biochemical. To be noted: 100 nM. Here is the method:
as §1, §2, §3, §4

Another assay addresses T4, Abl (H396P) (human) (Homo sapiens, UniProt P00519, H396P).
T4 construct: purchased Millipore Pharma Services (contract assay, UK pharmacology laboratory)
Kind of assay: Mutated Abl kinase inhibition (in vitro), H396P. It is filed as biochemical. The note with it: 100 nM. Here is the method: as §1, §2, §3, §4

A further assay concerns the target T5, Lck (human) (Homo sapiens, UniProt P06239).
T5 construct: purchased Millipore Pharma Services (contract assay, UK pharmacology laboratory)
Kind of assay: Lck kinase inhibition (in vitro). The assay is classed as biochemical. The note with it: read-out: % Inhibition at 100 nM Lck. Here is the method:
as §1
In a final reaction volume of 25 μL, Lck (human) (5-10 mU) is incubated with 50 mM Tris pH 7.5, 0.1 mM EGTA, 0.1 mM Na3VO4, 250 μM […] [Cdc2 peptide), 10 mM Mg(OAc)2 and [γ-^33P-ATP] [specific activity approx. 500 cpm/pmol, concentration as required). The reaction is initiated by the addition of the MgATP mix. After incubation for 40 minutes at room temperature, the reaction is stopped by the addition of 5 μL of a 3% phosphoric acid solution. 10 μL of the reaction is then spotted onto a P30 filtermat and washed three times for 5 minutes in 75 mM phosphoric acid and once in methanol prior to drying and scintillation counting.
as §4

The target in the next assay is T6, Abl (Q252H) (human) (Homo sapiens, UniProt P00519, Q252H).
T6 construct: purchased Millipore Pharma Services (contract assay, UK pharmacology laboratory)
Kind of assay: Mutated Abl kinase inhibition (in vitro), Q252H. The assay is classed as biochemical. To be noted: 100 nM. As to the method:
as §1, §2, §3, §4

For a further assay, the system named is K562 cells. Description: In-vitro cell proliferation assay (MTT), K562 cells. It is filed as cell-based. The note with it: Homo sapiens; for inhibition at 0.01 µM: 10 nM; for inhibition at 0.1 µM: 100 nM. Here is the method: In-Vitro Cell Proliferation Assay
K562/U937 cells (2×10^4 per well) were incubated with the test compounds/vehicle in a total volume of 200 μL of media at 37° C. with 5% CO2. […] The cells were incubated overnight at 37° C. with 5% CO2. On Day 5 the optical density was measured at 570 nm with 630 nm as reference wavelength. The optical density in the vehicle treated wells was compared with that of the test compound treated wells.

The target in another assay is T7, Abl (T315I) (human) (Homo sapiens, UniProt P00519, T315I).
T7 construct: purchased Millipore Pharma Services (contract assay, UK pharmacology laboratory)
Description: Abl-T315I kinase inhibition (in vitro). It is filed as biochemical. To be noted: for inhibition at 0.1 µM: 100 nM; for inhibition at 1 µM: 1000 nM; for inhibition at 0.003 µM: 3 nM; for inhibition at 0.03 µM: 30 nM. Here is the method: as §1
[specific activity approx. 500 cpm/pmol, concentration as required). The reaction is initiated by the addition of the MgATP mix. After incubation for 40 minutes at room temperature, the reaction is stopped by the addition of 5 μL of a 3% phosphoric acid solution. 10 μL of the reaction is then spotted onto a P30 filtermat and washed three times for 5 minutes in 75 mM phosphoric acid and once in methanol prior to drying and scintillation counting.
as §4

SMILES strings stand for the structures.

T5 sequence (P06239 whole entry): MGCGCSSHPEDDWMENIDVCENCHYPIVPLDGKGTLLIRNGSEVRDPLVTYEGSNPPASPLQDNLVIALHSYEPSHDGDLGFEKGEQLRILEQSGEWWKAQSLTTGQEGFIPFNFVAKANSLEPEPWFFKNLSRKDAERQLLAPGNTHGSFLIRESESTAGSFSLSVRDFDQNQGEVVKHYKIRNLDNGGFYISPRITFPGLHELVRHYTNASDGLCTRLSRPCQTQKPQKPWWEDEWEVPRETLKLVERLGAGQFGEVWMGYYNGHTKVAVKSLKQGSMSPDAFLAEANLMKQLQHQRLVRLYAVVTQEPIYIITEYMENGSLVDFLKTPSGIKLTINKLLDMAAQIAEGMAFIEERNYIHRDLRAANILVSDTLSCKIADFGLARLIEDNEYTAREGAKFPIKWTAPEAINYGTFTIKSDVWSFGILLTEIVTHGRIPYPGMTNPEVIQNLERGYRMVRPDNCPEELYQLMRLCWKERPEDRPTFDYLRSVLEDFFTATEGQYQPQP

Consider `Cc1ccc(C(=O)NNC(=O)c2c(C)cccc2Cl)cc1C#Cc1cnc2ccccc2c1` [I.2, N′-(2-Chloro-6-methylbenzoyl)-4-methyl-3-[2-(3-quinolyl)ethynyl]benzohydrazide], for which the inhibition – broadly, the drop in the measured response relative to a control, in per cent – at 0.1 µM against Abl (M351T) (human) stood at 100%; at Lyn (human), 97%; against Abl (Y253F) (human), 101%; against Abl (H396P) (human), 99%; on Lck (human), 84%; on Abl (Q252H) (human), 100%.
On to `Cc1ccc(C(=O)NNC(=O)c2c(C)cccc2I)cc1C#Cc1cnc2ccccc2c1` [I.4, N′-(2-Iodo-6-methylbenzoyl)-4-methyl-3-[2-(3-quinolyl)ethynyl]benzohydrazide], for which the inhibition at 0.01 µM in the assay with K562 cells stood at 102%. Moreover, the inhibition at 0.1 µM was determined as 100% with K562 cells; 99% against Abl (M351T) (human); 97% on Lyn (human); 98% against Abl (Y253F) (human); 100% on Abl (H396P) (human); 90% against Abl (T315I) (human). Besides, the inhibition at 0.1 µM on Lck (human) came out at 81%; against Abl (Q252H) (human), 100%. Besides, the inhibition at 1 µM against Abl (T315I) (human) was 100%.
Regarding `Cc1ccc(C(=O)NNC(=O)c2c(C)cccc2Cl)cc1C#Cc1cnc2cccnn12` [I.16, N′-(2-Chloro-6-methylbenzoyl)-3-[2-(imidazo[1,2-b]pyridazin-3-yl)ethynyl]-4-methylbenzohydrazide], in the assay with K562 cells, the inhibition at 0.01 µM was found to be 104%. Moreover, the inhibition at 0.1 µM with K562 cells was determined as 102%; against Abl (M351T) (human), 100%; on Lyn (human) it was 74%; against Abl (Y253F) (human), 98%; against Abl (H396P) (human) it was 99%; against Abl (T315I) (human) it was 70%. Further, the inhibition at 0.1 µM at Lck (human) came out at 65%; on Abl (Q252H) (human), 98%. The inhibition at 1 µM against Abl (T315I) (human) came to 93%.
For `Cc1ccc(C(=O)NNC(=O)c2c(C)cccc2Cl)cc1C#Cc1cnc2ccc(Cl)cc2n1` [I.26, N′-(2-Chloro-6-methylbenzoyl)-3-[2-(7-chloroquinoxalin-2-yl)ethynyl]-4-methylbenzohydrazide], in the assay with K562 cells, the inhibition at 0.01 µM worked out at 71.8% and the inhibition at 0.1 µM was 78.2%. For the same molecule, on Abl (T315I) (human), the inhibition at 0.003 µM is 3% and the inhibition at 0.03 µM was 41%.
The matching figures for `Cc1ccc(C(=O)NNC(=O)c2c(C)cccc2Cl)cc1C#Cc1cnc2ccccc2n1` [I.27, N′-(2-Chloro-6-methylbenzoyl)-4-methyl-3-[2-(quinoxalin-2-yl)ethynyl]benzohydrazide]: 79.3%, 75.3%, 0% and 55%.
